In patent publication US10646565B2, “Treatment of alzheimer'S disease (AD) with an aluminum salt” (AFFIRIS AG, priority 2014, dated 2020):
Entries after “also recorded” stand apart in the source; their conditions may differ.

Assays:
[1] = tested on: patients with early AD; experiment: AFF006 clinical trial: Quality of Life (QOL) caregiver; format: in vivo, human; conditions: 2 mg compared to 1 mg and other groups, over a period of 18 months, FIG. 5
From the text: Caregivers completed the measure as a questionnaire about their patients' QOL. The measure consisted of 13 items, rated on a 4 point scale, with 1 being poor and 4 being excellent. Outcomes are shown as the change over time using a least squares means from a mixed model.
QOL caregiver is a brief, 13-item questionnaire designed to specifically obtain a rating of the QOL of the patient from the caregiver's perspective. Questions cover relationships with friends and family, concerns about finances, physical condition, mood, and an overall assessment of life quality. All items are rated on a four-point scale, with 1 being poor and 4 being excellent. The total score is the sum of all items, which can range from 13 to 52. QOL caregiver values are presented here as the change from baseline. Outcomes were measured at Visits 1, 6, 8, and 10.

[2] = tested on: patients with early AD; experiment: AFF006 clinical trial: adapted ADAS-cog, adapted ADCS-ADL and Composite score; format: in vivo, human
From the text: The present invention provides for the first time an AD treatment that is disease modifying. The effectiveness of the treatment according to the present invention is proven by the parameters required by the drug authorisation authorities, especially the EMEA and the US-FDA. For example, the EMEA guideline for AD treatment requires primary endpoints reflecting the cognitive and the functional domain. Accordingly, a combined (Composite) score is used for the clinical assessment of the present invention. This composite score combines two established scores, one for the cognitive function (ADAS-cog (Alzheimer's Disease Assessment Scale-cognitive subscale)) and one for the functional ability (ADCS-ADL (Alzheimer's Disease Co-operative Study—Activities of Daily Living Inventory)). The adapted ADAS-cog combines items that assess cognitive function. The adapted ADCS-ADL includes items that are sensitive to functional ability. […]
Combined composite according to the present invention: =1.67*Word recall+1.35*Orientation+1.42*Word Recognition+0.55*Recall Instructions+0.81*Spoken Language+1.01*Word Finding+5.42*ONB+0.15*VPAL+0.19*Category Fluency+0.28*Belongings+0.35*Shopping+0.23*Hobbies+0.38*Beverage+0.37*Meal+0.23*Current Events+0.26*TV+0.33*Keeping Appointments+0.37*Travel+0.33*Alone+0.35*Appliance+0.49*Clothes+0.36*Read+0.62*Telephone+0.33*Writing
The primary efficacy variables are the change from baseline (CFB) in cognition as measured by an adapted ADAS-cog, CFB in function as measured by an adapted ADCS-ADL and a combination of CFB in cognition and function as measured by a combined composite:
ADAS-cog and other items included in the adapted ADAS-cog were measured at Visits 1, 2, 3, 5, 6, 7, 8, 9 and 10 or EDV. ADCS-ADL were measured at Visits 2, 5, 6, 7, 8, 9 and 10 or EDV. Items that contributing to the combined primary outcome were measured at Visits 2, 5, 6, 7, 8, 9 and 10 or EDV.
The primary efficacy outcomes all range from 0 to 100. […] Before a composite was calculated, contributing items that are scored in the opposite direction were reversed. […]

[3] = molecular target: BSA (Bos taurus, UniProt P02769); conditions: pH 7.4; cited from earlier work
[4] = tested on: amyloid deposits; experiment: Cerebral amyloid load by immunofluorescence (mAb 3A5) in Tg2576 mice; format: in vivo; conditions: 6 monthly s.c. injections, sacrificed at 14 months of age
[5] = molecular target: T1, Ovalbumin (Gallus gallus, UniProt P01012); conditions: pH 7.4; cited from earlier work
T1 sequence (P01012 1-386): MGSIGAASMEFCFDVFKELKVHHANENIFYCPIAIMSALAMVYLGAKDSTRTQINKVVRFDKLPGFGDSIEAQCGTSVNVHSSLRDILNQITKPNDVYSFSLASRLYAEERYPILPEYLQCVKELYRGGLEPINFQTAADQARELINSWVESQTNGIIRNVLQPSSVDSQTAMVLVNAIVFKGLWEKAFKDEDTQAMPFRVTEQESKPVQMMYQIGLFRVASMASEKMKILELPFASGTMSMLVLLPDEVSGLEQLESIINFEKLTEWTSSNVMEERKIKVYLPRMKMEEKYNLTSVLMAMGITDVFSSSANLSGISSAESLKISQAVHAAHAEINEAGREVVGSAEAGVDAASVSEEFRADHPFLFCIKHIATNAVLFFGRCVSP

BSA, sequence (P02769 25-607): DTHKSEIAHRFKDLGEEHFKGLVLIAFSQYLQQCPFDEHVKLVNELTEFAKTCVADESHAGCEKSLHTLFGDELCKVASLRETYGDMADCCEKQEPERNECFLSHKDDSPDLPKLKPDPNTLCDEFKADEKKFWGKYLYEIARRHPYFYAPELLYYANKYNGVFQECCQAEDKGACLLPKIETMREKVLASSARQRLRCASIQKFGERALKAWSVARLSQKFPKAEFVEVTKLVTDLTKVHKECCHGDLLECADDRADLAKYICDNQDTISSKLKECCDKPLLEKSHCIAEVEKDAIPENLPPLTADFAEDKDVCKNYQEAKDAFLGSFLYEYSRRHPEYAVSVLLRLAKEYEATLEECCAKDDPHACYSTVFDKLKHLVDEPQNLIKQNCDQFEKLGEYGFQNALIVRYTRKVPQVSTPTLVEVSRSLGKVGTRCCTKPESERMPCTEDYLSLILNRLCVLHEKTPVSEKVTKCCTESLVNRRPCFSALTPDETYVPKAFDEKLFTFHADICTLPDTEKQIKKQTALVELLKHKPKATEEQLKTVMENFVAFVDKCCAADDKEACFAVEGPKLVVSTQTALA

aluminium oxyhydroxide
QOL of the patient rated by caregivers (QOL-AD) [1]: significantly improved | parameters informing on the progression of the disease (change in Composite score) ([2]; 2 mg group vs 1 mg group, all patients, FIG. 1): compares favourably | Adapted ADAS-cog: disease progression ([2]; 2 mg group, over 18 months, FIG. 3): Slowing of disease progression | effect on disease progression (Composite score) in mild population ([2]; mild population (baseline MMSE score of 24 and higher), 2 mg vs 1 mg, FIG. 2): most pronounced in the cohort of patients in earlier disease stages | maximal binding capacity to BSA (pI 4.9) [3]: 2.2±0.1 mg protein/mg aluminum | cerebral amyloid load (relative brain area covered by amyloid deposits) ([4]; IF-staining mAb 3A5, FIG. 8, listed as Alum): did not significantly alter amyloid deposition; also recorded: slight but insignificant reduction in Aβ deposition | cerebral amyloid load (relative brain area covered by amyloid deposits) ([4]; IF-staining mAb 3A5, FIG. 8, listed as aluminium-oxyhydroxide): without significantly changing cerebral Aβ levels | maximal binding capacity to Ovalbumin (pI 4.6) [5]: 1.6±0.1 mg protein/mg aluminum
